Measurements as given in patent US10183936B2, “Hepatitis B core protein allosteric modulators” (priority 2014, dated 2019).

Legend:
AD38 cells = assay: Viability of AD38 cells (Promega CellTiter-Glo) at the end of compound treatment; assay type: cell-based; settings: 10 μM compound, 6 days, luminescence normalized against DMSO control wells (controls being 100%)
Procedure, shortened: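 AD38 cells seeded at 50,000/well received compound from a 10× solution in 10% DMSO and were incubated 6 days at 37° C. Viability was then read by CellTiter-Glo luminescence in tetracycline-free medium with 2% FBS and 1% DMSO, normalized to DMSO control wells (100%) and reported as percent viability.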

[1] = system: HBV viral production in AD38 cells; assay: Viral load production in AD38 cells by quantitative PCR of the HBV core sequence in supernatant; assay type: cell-based; settings: 10 μM compound, 6 days at 37° C., viral load in supernatant compared against DMSO control wells; for activity at 10 µM: Hepatitis B virus, 144 h, read-out: AD38 Viral Load (CpAM/DMSO %) at 10 μM
Procedure, shortened: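 AD38 cells seeded at 50,000/well, treated 6 days at 37° C with compound added as 10× solution in 10% DMSO. HBV core sequence in clarified supernatant quantified by TaqMan qPCR against known standards; viral load compared with DMSO control wells.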

| SMILES | AD38 Viability Normalized Result (CPAM/DMSO %) at 10 μM (AD38 cells) [%] | activity at 10 µM [1] [%] | AD38 Viral Load (CpAM/DMSO %) at 10 μM [1] [%] |
| --- | --- | --- | --- |
| CCN1c2ccc(C(=O)NCCc3ccccn3)cc2NC(=O)c2ccccc21 [Compound 1522] | 82 | 1 |  |
| CCN1c2ccc(C(=O)NCCc3cccnc3)cc2NC(=O)c2ccccc21 [Compound 1523] | 70 | 1 |  |
| CCN1c2ccc(C(=O)NCCc3ccc(-c4ccccc4)cc3)cc2NC(=O)c2ccccc21 [Compound 1524] | 18 | 2 |  |
| NC(=O)c1ccc2c(c1)NC(=O)c1ccccc1S2 [Compound 1525] | 85 | 78 |  |
| O=C1Nc2cc(S(=O)(=O)Nc3ccc(F)cc3F)ccc2Sc2ccccc21 [Compound 1526] | 92 | 57 |  |
| O=C(NCCc1cncs1)c1ccc2c(c1)NC(=O)c1ccccc1[S+]2[O-] (stereo not drawn) [Compound 1527] | 116 | 19 |  |
| O=C(NCCc1cncs1)c1ccc2c(c1)NC(=O)c1cccc(F)c1S2 [Compound 1528] | 85 | 4 |  |
| Cc1c(C(=O)NCCc2cncnc2)ccc2c1NC(=O)c1ccccc1S2 [Compound 1529] | 111 | 12 |  |
| O=C1Nc2c(cc(F)c(C(=O)NCc3cnco3)c2F)Sc2ccccc21 [Compound 1530] | 93 | 70 |  |
| O=C1Nc2c(cc(F)c(C(=O)NCCc3cccnc3)c2F)Sc2ccccc21 [Compound 1531] | 96 | 53 |  |
| CN1c2ccc(C(=O)NCCc3cncs3)cc2NC(=O)c2ccccc21 [Compound 1532] | 112 | 17 |  |
| CCN1c2ccc(C(=O)NCc3cncnc3)cc2NC(=O)c2ccccc21 [Compound 1533] | 105 | 2 |  |
| CCN1c2ccc(C(=O)NCc3cncs3)cc2NC(=O)c2ccccc21 [Compound 1534] | 109 | 5 |  |
| O=C(NCc1cncs1)c1ccc2c(c1)NC(=O)c1ccccc1[SH]2O (stereo not drawn) [Compound 1535] | 85 |  | 108 |
| O=C(NCc1cncs1)c1ccc2c(c1)NC(=O)c1ccccc1[SH]2O (stereo not drawn) [Compound 1536] | 120 |  | 2 |
| O=C(Nc1nnco1)c1ccc2c(c1)NC(=O)c1cc(F)ccc1S2 [Compound 1537] | 98 | 36 |  |
| O=C(NCc1cncnc1)c1ccc2c(c1)NC(=O)c1c(F)cccc1S2 [Compound 1540] | 87 | 12 |  |
| O=C(NCc1cncs1)c1ccc2c(c1)NC(=O)c1c(F)cccc1S2 [Compound 1541] | 117 | 11 |  |
| O=C(NCc1cnco1)c1ccc2c(c1)NC(=O)c1c(F)cccc1S2 [Compound 1542] | 95 | 34 |  |
| O=C(NCCc1cncnc1)c1ccc2c(c1)NC(=O)c1c(F)cccc1S2 [Compound 1543] | 90 | 72 |  |
| O=C1Nc2cc(S(=O)(=O)Nc3ccc(Cl)cc3F)ccc2Sc2ccccc21 [Compound 1544] | 97 | 40 |  |
| O=C1Nc2c(cc(F)c(C(=O)NCc3cncs3)c2F)Sc2ccccc21 [Compound 1545] | 88 | 59 |  |
| O=C1Nc2c(cc(F)c(C(=O)NCc3cccnc3)c2F)Sc2ccccc21 [Compound 1546] | 89 | 65 |  |
| CN1c2ccc(C(=O)NCc3cnco3)cc2NC(=O)c2ccccc21 [Compound 1547] | 90 | 16 |  |

| SMILES | AD38 Viability Normalized Result (CPAM/DMSO %) at 10 μM (AD38 cells) [%] | activity at 10 µM [1] [%] | AD38 Viral Load (CpAM/DMSO %) at 10 μM [1] [%] |
| --- | --- | --- | --- |
| CN1c2ccc(C(=O)NCCc3cncnc3)cc2NC(=O)c2ccccc21 [Compound 1548] | 85 | 28 |  |
| CN1c2ccc(C(=O)NCCc3cccnc3)cc2NC(=O)c2ccccc21 [Compound 1549] | 109 | 7 |  |
| CCN1c2ccc(C(=O)NCc3cccnc3)cc2NC(=O)c2ccccc21 [Compound 1550] | 87 | 1 |  |
| O=C(NCCc1nnc[nH]1)c1ccc2c(c1)NC(=O)c1ccccc1S2 [Compound 1551] | 91 | 51 |  |
| O=C(NC(Cc1nnc[nH]1)c1ccccc1)c1ccc2c(c1)NC(=O)c1ccccc1S2 (stereo not drawn) [Compound 1552] | 93 | 64 |  |
| CN1C(=O)c2ccccc2Sc2ccc(C(=O)NCc3cccnc3)cc21 [Compound 1553] | 93 | 86 |  |
| O=C(NCCc1cccnc1)c1ccc2c(c1)NC(=O)c1c(F)cccc1S2 [Compound 1555] | 81 | 36 |  |
| O=C1Nc2cc(S(=O)(=O)NCc3cncs3)ccc2Sc2ccccc21 [Compound 1556] | 86 | 67 |  |
| O=C(NCCc1cnco1)c1cc2c(cc1F)Sc1ccccc1C(=O)N2 [Compound 1557] | 86 | 54 |  |
| O=C(NCCc1cncs1)c1cc2c(cc1F)Sc1ccccc1C(=O)N2 [Compound 1558] | 88 | 51 |  |
| O=C(NCCc1cnco1)c1ccc2c(c1)NC(=O)c1ccccc1N2Cc1ccccc1 [Compound 1559] | 92 | 68 |  |
| Cc1c(C(=O)NCCc2cnco2)ccc2c1NC(=O)c1ccccc1S2 [Compound 1560] | 92 | 13 |  |
| Cc1c(C(=O)NCCc2cncs2)ccc2c1NC(=O)c1ccccc1S2 [Compound 1561] | 118 | 8 |  |
| O=C1Nc2c(cc(F)c(C(=O)NCCc3cncnc3)c2F)Sc2ccccc21 [Compound 1562] | 89 | 25 |  |
| O=C1Nc2c(cc(F)c(C(=O)NCCc3cncs3)c2F)Sc2ccccc21 [Compound 1563] | 93 | 41 |  |
| CCN1c2ccc(C(=O)NCc3cnco3)cc2NC(=O)c2ccccc21 [Compound 1564] | 119 | 10 |  |
| CCN1c2ccc(C(=O)NCCc3cncnc3)cc2NC(=O)c2ccccc21 [Compound 1565] | 103 | 4 |  |
| CCN1c2ccc(C(=O)NCCc3cncs3)cc2NC(=O)c2ccccc21 [Compound 1566] | 91 | 31 |  |
| Cc1nnc(CCNC(=O)c2ccc3c(c2)NC(=O)c2ccccc2S3)s1 [Compound 1567] | 109 | 1 |  |
| Nc1nnc(CCNC(=O)c2ccc3c(c2)NC(=O)c2ccccc2S3)s1 [Compound 1568] | 100 | 1 |  |
| O=C(NCCc1cccnn1)c1ccc2c(c1)NC(=O)c1ccccc1S2 [Compound 1569] | 114 | 1 |  |
| O=C(NCCc1nnc(-c2ccco2)[nH]1)c1ccc2c(c1)NC(=O)c1ccccc1S2 [Compound 1570] | 115 | 2 |  |
| O=C(NCc1nncs1)c1ccc2c(c1)NC(=O)c1ccccc1S2 [Compound 1571] | 117 | 35 |  |
| O=C(NCc1ccncc1)c1ccc2c(c1)NC(=O)c1ccccc1S2 [Compound 1572] | 116 | 5 |  |
